In PMC12185579, “Impact of nephrotoxins and oxidants on survival and transport function of hiPSC-derived renal proximal tubular cells” (Archives of Toxicology, 2025):
Values joined by “and” are separate entries in the source; they are usually repeats but may differ in a detail not shown here. Equal values may be shown once. Read-outs that look alike come from different tables or passages of the source.

Experiments:
[1] = test system: senescence-associated genes (β-GAL, IL-8, p21) in diffD9; test: RT-PCR senescence-associated genes, diffD9; assay type: cell-based, human; settings: diffD9, 48 h after a 24 h treatment
Description: (§1) RNA was isolated using the RNeasy Mini Kit and RNase-free DNase Set (Qiagen, Venlo, The Netherlands) according to the manufacturer’s protocol as reported previously (Mboni-Johnston et al. [2023]). The primer sequences (Table S1, supplement) used for the mRNA expression analyses were designed with the help of NCBI (https://www.ncbi.nlm.nih.gov/nuccore/) and validated for specificity. At the end of the run, data were analyzed using CFX Manager software (v3.1, Bio-Rad Laboratories, Hercules, CA, USA) according to the manufacturer’s instructions. All samples were run with three technical replicates. The Cq values obtained for the genes of interest were first normalized to the mean Cq values obtained for the housekeeping genes ACT-β and RPL-32 and then for the control samples and expressed as a fold of this mean value. Changes in gene expression of ≤ 0.5- and ≥ twofold were considered biologically relevant.

diffD9 [2] = test: TUNEL assay (apoptosis), diffD9; assay type: cell-based, human; settings: diffD9, 24 h, IC20 and IC50 of the hiPSC (CisPt: a higher concentration added)
Description: (§2) To verify whether the substances analyzed induce apoptosis in the cells at different stages of differentiation, the TUNEL (terminal deoxynucleotidyl transferase-mediated dUTP-fluorescein nick-end labeling) assay was performed with cells grown on coverslips using the In-Situ Cell Death Detection Assay Kit (Roche GmbH, Grenzach-Wyhlen, Germany) according to the manufacturer’s instructions. The TUNEL assay visualizes free hydroxyl groups from fragmented DNA produced during apoptosis by labeling them with modified nucleotides through an enzymatic reaction (Gavrieli et al. [1992]). The coverslips were mounted with […]® Antifade Mounting Medium containing DAPI and sealed with nail polish. Fluorescence images were acquired using a fluorescence microscope (Olympus BX43 Upright Microscope, Olympus, Shinjuku, Tokyo, Japan) at 200-fold magnification and analyzed using ImageJ 1.51j8 (Schneider et al. [2012]). TUNEL-positive cells were referenced to the total number of cells and normalized to the untreated control.

[3] = test system: senescence-associated genes (β-GAL, IL-8, p21) in diffD3; test: RT-PCR senescence-associated genes, diffD3; assay type: cell-based, human; settings: diffD3, 48 h after a 24 h treatment
Description: as §1

hiPSC, diffD3 and diffD9 [4] = test: Cell viability of all differentiation stages, with and without pan-caspase inhibitor QVD; assay type: cell-based, human; settings: 10 µM QVD
Description: (§3) After 24 h of exposure, the viability of the undifferentiated, differentiating, and differentiated cells was examined using the Alamar Blue Assay (O'Brien et al. [2000]), as described previously (Mboni-Johnston et al. [2023]). The relative viability of the cells in the corresponding untreated controls was set to 100%.

[5] = test system: senescence-associated genes (β-GAL, IL-8, p21) in hiPSC; test: RT-PCR senescence-associated genes, hiPSC; assay type: cell-based, human; settings: 48 h after a 24 h treatment
Description: as §1

diffD3 [6] = test: EdU incorporation (proliferation), diffD3; assay type: cell-based, human; settings: diffD3, 24 h, hiPSC's IC20 and IC50
Description: (§4) To investigate the effect of toxins on the proliferation rate, the incorporation of EdU into S-phase cells was determined using the EdU-Click 488 assay according to the manufacturer’s protocol (Baseclick GmbH, Tutzing, Germany) as reported earlier (Mboni-Johnston et al. [2023]).

hiPSC, diffD3 and diffD9 [7] = test system: hiPSC, diffD3 and diffD9; parameters: method as in Mboni-Johnston et al. [2023]; settings: diffD3, differentiated PTELC ref Mboni-Johnston et al. [2023]; cited from earlier work
hiPSC [8] = test: TUNEL assay (apoptosis), hiPSC; assay type: cell-based, human; settings: 24 h, IC20 and IC50 of the hiPSC
Description: as §2

hiPSC [9] = test system: hiPSC; parameters: method as in Mboni-Johnston et al. [2023]; settings: as given in Fig. 7 legend, value from former study ref Mboni-Johnston et al. [2023], cited from earlier work
diffD3 [10] = test: TUNEL assay (apoptosis), diffD3; assay type: cell-based, human; settings: diffD3, 24 h, IC20 and IC50 of the hiPSC
Description: as §2

diffD9 [11] = test system: diffD9; parameters: method as in Mboni-Johnston et al. [2023]; settings: ref Mboni-Johnston et al. [2023]; cited from earlier work
[12] = test system: stem cell markers, PTEC markers and transporters mRNA in diffD9; test: RT-PCR marker gene expression at diffD9 after treatment at diffD3; assay type: cell-based, human; settings: for expression of megalin and cubilin: treated at diffD3, analyzed at diffD9
Description: as §1

hiPSC [13] = test: EdU incorporation (proliferation), hiPSC; assay type: cell-based, human; settings: 24 h, hiPSC's IC20 and IC50
Description: as §4

diffD9 [14] = test: FITC-albumin uptake at diffD9 after treatment at diffD3; assay type: cell-based, human; settings: treated 24 h at diffD3 with hiPSC's IC20 and IC50, analyzed at diffD9
Description: Cells were incubated with serum-free medium with/without 100 µg/ml FITC-albumin for 2 h at 37 °C, and uptake was stopped with ice-cold PBS. Cells were then harvested from Matrigel-coated wells with trypsin/EDTA, and albumin uptake was analyzed by flow cytometry [Becton Dickinson, Accuri™ C6 plus (Heidelberg, Germany)] as previously reported (Mboni-Johnston et al. [2023]).

diffD9 [15] = test: EdU incorporation (proliferation), diffD9; assay type: cell-based, human; settings: diffD9, 24 h, hiPSC's IC20 and IC50
Description: as §4

[16] = test system: diffD3 (hiPSC differentiating into PTELC); test: Alamar Blue cell viability, differentiating cells day 3; assay type: cell-based, human; settings: for IC50 of diffD3, fold lower than those of hiPSC and diffD9: Alamar Blue, 24 h; for IC50: Homo sapiens, diffD3, 24 h treatment
Description: as §3

[17] = test system: human liver cell line HepG2; parameters: method as in Chen and Cederbaum [1997]; settings: HepG2, after 18 h of incubation ref Chen and Cederbaum [1997]; read-out: IC50 (cytotoxicity); cited from earlier work
[18] = test system: diffD9 (hiPSC differentiated into PTELC); test: Alamar Blue cell viability, differentiated cells day 9; assay type: cell-based, human; settings: diffD9, 24 h treatment; for IC20: read-out: IC20 (inhibitory concentration where 20% of the cells are dead)
Description: as §3

diffD9 [19] = test: FITC-albumin uptake (flow cytometry) in diffD9 treated at diffD9; assay type: cell-based, human; settings: diffD9, 24 h treatment (menadione: IC50)
Description: The effect of toxins on the transport function of hiPSC-derived PTELC was examined by adding fluorescently labeled bovine serum albumin (FITC-BSA) (Sigma-Aldrich, 10 mg/ml) to the culture medium. Cells were incubated with serum-free medium with/without 100 µg/ml FITC-albumin for 2 h at 37 °C, and uptake was stopped with ice-cold PBS. Cells were then harvested from Matrigel-coated wells with trypsin/EDTA, and albumin uptake was analyzed by flow cytometry [Becton Dickinson, Accuri™ C6 plus (Heidelberg, Germany)] as previously reported (Mboni-Johnston et al. [2023]).

[20] = test system: PTEC markers and transporters mRNA in diffD9; test: RT-PCR marker gene expression in diffD9 treated at diffD9; assay type: cell-based, human; settings: diffD9, 24 h; for Aqp-1 mRNA expression: IC20 and IC50, vs untreated diffD9; for Pept-1 mRNA expression: IC50 (tBHQ not statistically significant); for Meg (megalin) mRNA expression: Mena IC20 and IC50, tBHQ IC50 (not statistically significant)
Description: as §1

hiPSC [21] = test: Alamar Blue cell viability, undifferentiated hiPSC; assay type: cell-based, human; settings: for IC20 / IC50: Homo sapiens; for IC20: read-out: hiPSC's IC20
Description: as §3

mammary epithelial cells = test system: mammary epithelial cells; parameters: method as in Jin et al. [2016]; settings: mammary epithelial cells ref Jin et al. [2016]; read-out: IC50 (cell viability); cited from earlier work
endothelial cells = test system: endothelial cells; parameters: method as in Karimi et al. [2019]; settings: endothelial cells ref Karimi et al. [2019]; read-out: IC50 (cell viability); cited from earlier work
[22] = as given in Fig. 7 legend, concentration used to treat diffD3 for 24 h
[23] = as given in Fig. 7 legend, concentration used to treat diffD3 for 24 h, read-out: hiPSC's IC50
[24] = hiPSC, 24 h treatment, read-out: IC50 (cell viability, Alamar Blue)

SMILES: N.N.[Cl][Pt][Cl] [CisPt, cisplatin]
- mRNA expression of senescence-associated genes (β-GAL, IL-8, p21) [1]: no extensive expression
- frequency of TUNEL-positive cells (diffD9 [2]): increased in a dose-dependent manner
- mRNA expression of senescence-associated genes (β-GAL, IL-8, p21) [3]: only p21 was significantly higher expressed in diffD3
- cell viability under co-treatment with pan-caspase inhibitor QVD vs mono-treatment (hiPSC, diffD3 and diffD9 [4]): significant restoration of cell viability to almost control level
- mRNA expression of senescence-associated genes (β-GAL, IL-8, p21) [5]: no extensive expression
- EdU incorporation (proliferation) vs untreated control (diffD3 [6]): not affected
- relative sensitivity of differentiation stages (hiPSC, diffD3 and diffD9 [7]): hiPSC and diffD3 were more sensitive to CisPt than differentiated PTELC
- frequency of TUNEL-positive cells (hiPSC [8]): increased in a dose-dependent manner
- IC20 (hiPSC [9]; read-out: hiPSC's IC20): 0.3 µM
- IC50 (hiPSC [9]; read-out: hiPSC's IC50): 1 µM
- frequency of TUNEL-positive cells (diffD3 [10]): increased in a dose-dependent manner
- albumin uptake capacity of PTELC (diffD9 [11]): reduced the albumin uptake capacity
- long-term changes in marker transcripts ([12]; treated 24 h at diffD3 with iPSCs' IC20, analyzed at diffD9): all but two transcripts being significantly reduced
- EdU incorporation (proliferation) vs untreated control (hiPSC [13]): inhibited the likely proliferation-associated EdU incorporation in hiPSC in a dose-dependent manner
- albumin uptake (diffD9 [14]): strong effect
- EdU incorporation (cells in S-phase) vs untreated control (diffD9 [15]): not affected

SMILES: CC1=CC(=O)c2ccccc2C1=O [Mena, menadione]
- mRNA expression of senescence-associated genes (β-GAL, IL-8, p21) [1]: IL-8 levels significantly increased
- IC50 of diffD3, fold lower than those of hiPSC and diffD9 [16]: about four
- IC50 [16]: 4.1 µM
- IC50 [17]: 18 to 19 µM
- IC50 ([18]; Homo sapiens, 24 h): 17.6 µM
- IC20 ([18]; Homo sapiens): 11 µM
- IC50 [18]: 17 µM
- IC50 ([18]; listed as Menadione): 18 µM
- albumin transport (FITC-albumin uptake) (diffD9 [19]): significant decrease
- EdU incorporation (proliferation) vs untreated control (diffD3 [6]): inhibited proliferation
- frequency of TUNEL-positive cells (diffD3 [10]): significantly increased
- Nanog mRNA expression ([20]; IC20): significantly increased
- Aqp-1 mRNA expression [20]: significant and dose-dependent decrease
- CD13 mRNA expression ([20]; IC50): increased significantly
- Pept-2 mRNA expression ([20]; IC50): reduced expression
- Pept-1 mRNA expression [20]: increased significantly
- Meg (megalin) mRNA expression [20]: significant and dose-dependent decrease
- IC20 (hiPSC [21]; [22]): 3 µM
- IC50 (hiPSC [21]; [23]): 6 µM
- IC50 (hiPSC [21]; [24]): 16.2 µM
- expression of megalin and cubilin [12]: low but significant effect
- EdU incorporation (proliferation) vs untreated control (hiPSC [13]): no significant differences in EdU incorporation
- albumin uptake (diffD9 [14]): no effect on albumin transport itself
- EdU incorporation (cells in S-phase) vs untreated control (diffD9 [15]): no significant differences in EdU incorporation

SMILES: CC(C)(C)c1cc(O)ccc1O [tBHQ, tert-butylhydroquinone]
- mRNA expression of senescence-associated genes (β-GAL, IL-8, p21) [3]: IL-8 levels significantly increased
- IC50 (mammary epithelial cells): 50 µM
- IC50 of diffD3, fold lower than those of hiPSC and diffD9 [16]: 7- to 12
- IC50 [16]: 2.8 µM
- IC50 ([18]; Homo sapiens, 24 h): 34.5 µM
- IC20 ([18]; Homo sapiens): 15 µM
- IC50 [18]: 34 µM and 35 µM
- albumin transport (FITC-albumin uptake) (diffD9 [19]): increased the transport
- EdU incorporation (proliferation) vs untreated control (diffD3 [6]): inhibited proliferation
- frequency of TUNEL-positive cells (diffD3 [10]): significantly increased
- Aqp-1 mRNA expression [20]: significant dose-dependent decrease
- Pept-1 mRNA expression [20]: increased above twofold
- Cad-16 mRNA expression ([20]; IC50, statistically significant): increased above twofold
- Meg (megalin) mRNA expression [20]: increased above twofold
- sensitivity of hiPSC compared to diffD9 (hiPSC [21]; Alamar Blue, 24 h): twice as sensitive
- IC20 (hiPSC [21]; [22]): 4 µM
- IC50 (hiPSC [21]; [23]): 8 µM
- IC50 (hiPSC [21]; [24]): 18.5 µM
- expression of megalin and cubilin [12]: neither showed a relevant effect
- EdU incorporation (proliferation) vs untreated control (hiPSC [13]): no significant differences in EdU incorporation
- IC50 (endothelial cells): 60 µM
- EdU incorporation (cells in S-phase) vs untreated control (diffD9 [15]): no significant differences in EdU incorporation
